# Test results reported in patent publication US12605361B2, “Carboxylated psilocybin derivatives and methods of using” (Enveric Biosciences Canada Inc., priority 2020, dated 2026).
# Key:
# [1] = molecular target: T1, 5-HT1A receptor (Homo sapiens, UniProt P08908); assay: cAMP-Glo assay of 5-HT1A activation in +5-HT1A cells (CHO-K1/5-HT1A/Gα15); format: cell-based; details: for 5-HT1A activity from luminescence (cAMP) trend: +5HT1A cell culture, FIG. 14B, 14C; for 5-HT1A binding activity from % cAMP levels trend: +5HT1A cell cultures
# T1 construct: host or cells: CHO-K1 stably expressing 5-HT1A and Gα15
# T1 sequence (P08908 1-422): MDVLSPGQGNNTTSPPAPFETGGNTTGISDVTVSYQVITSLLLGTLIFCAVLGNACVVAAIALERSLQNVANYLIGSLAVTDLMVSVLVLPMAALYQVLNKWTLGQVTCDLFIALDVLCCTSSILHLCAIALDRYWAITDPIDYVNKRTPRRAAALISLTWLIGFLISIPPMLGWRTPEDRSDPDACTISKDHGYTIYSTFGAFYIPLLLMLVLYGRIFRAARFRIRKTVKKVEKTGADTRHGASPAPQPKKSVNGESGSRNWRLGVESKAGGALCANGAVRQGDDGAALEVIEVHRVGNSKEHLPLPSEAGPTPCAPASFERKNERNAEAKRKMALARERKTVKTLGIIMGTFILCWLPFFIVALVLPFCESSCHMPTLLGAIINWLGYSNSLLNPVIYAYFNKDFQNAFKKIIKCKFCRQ
# From the text: (§1) CHO-K1/Gα15 (GenScript, M00257) (−5-HT1A) and CHO-K1/5-HT1A/Gα15 (GenScript, M00330) (+5-HT1A) cells lines were used. Briefly, CHO-K1/Gα15 is a control cell line that constitutively expresses Gα15 which is a promiscuous Gq protein. This control cell line lacks any transgene encoding 5-HT1A receptors, but still responds to forskolin; thus, cAMP response to forskolin should be the same regardless of whether or not 5-HT1A agonists are present. Conversely, CHO-K1/5-HT1A/Gα15 cells stably express 5-HT1A receptor in the CHO-K1 host background. […] In +5-HT1A cells, Gα15 may be recruited in place of Gαi/o, which could theoretically dampen cAMP response (Rojas and Fiedler 2016, Front Cell Neurosci 10: 272). […] In contrast, tryptophan is not known to activate 5-HT1A receptors, and was thus used as a negative control. Cells were maintained in complete growth media as recommended by supplier (GenScript) which is constituted as follows: Ham's F12 Nutrient mix (HAM's F12, GIBCO #11765-047) with 10% fetal bovine serum (FBS) (Thermo Scientific #12483020), 200 μg/ml zeocin (Thermo Scientific #R25005) and/or 100 μg/ml hygromycin (Thermo Scientific #10687010). The cells were cultured in a humidified incubator with 37° C. and 5% CO2. Cells maintenance was carried out as recommended by the cell supplier. Briefly, vials with cells were removed from the liquid nitrogen and thawed quickly in 37° C. water bath. Just before the cells were completely thawed the vial's outside was decontaminated by 70% ethanol spray. The cell suspension was then retrieved from the vial and added to warm (37° C.) complete growth media, and centrifuged at 1,000 rpm for 5 minutes. The supernatant was discarded, and the cell pellet was then resuspended in another 10 ml of complete growth media, and added to the 10 cm cell culture dish (Greiner Bio-One #664160). The media was changed every third day until the cells were about 90% confluent. The ˜90% confluent cells were then split 10:1 for maintenance or used for experiment.
# The change in intracellular cAMP levels due to the treatment of novel molecules was measured using cAMP-Glo Assay kit (Promega #V1501). Briefly, +5-HT1A cells were seeded on 1-6 columns and base −5-HT1A cells were seeded on columns 7-12 of the white walled clear bottom 96-well plate (Corning, #3903). Both cells were seeded at the density of 30,000 cells/well in 100 μl complete growth media and cultured 24 hrs in humidified incubator at 37° C. and 5% CO2. On the experiment day, the media of cells was replaced with serum/antibiotic free culture media. Then the cells were treated for 20 minutes with test molecules dissolved in induction medium ([…], 500 μM IBMX (isobutyl-1-methylxanthine, Sigma-Aldrich, Cat. #17018) and 100 μM (RO 20-1724, Sigma-Aldrich, Cat. #B8279)). Forskolin induced cAMP formation whereas IBMX and RO 20-1724 inhibited the degradation of cAMP. PKA was added to the lysate, mixed, and subsequently the substrate of the PKA was added. PKA was activated by cAMP, and the amount of ATP consumed due to PKA phosphorylation directly corresponded to cAMP levels in the lysate. Reduced ATP caused reduced conversion of luciferin to oxyluciferin, conferring diminished luminescence as the result of 5-HT1A activation. […] Note that compound (VI) is shown simply as (VI) along the x-axis. For FIGS A-C, error bars represent results of three experiments (n=3).
# [2] = system: CHO-K1/Gα15 (−5-HT1A) cells; assay: cAMP-Glo assay in −5-HT1A control cells (CHO-K1/Gα15); format: cell-based; details: −5HT1A cell cultures (control without 5-HT1A receptor); FIG. 14D-14F
# From the text: as §1, with “The cell suspension was then retrieved from the vial and added to warm (37° C.) complete growth media, and centrifuged at 1,000 rpm for 5 minutes. The supernatant was discarded, and the cell pellet was then resuspended in another 10 ml of complete growth media, and added to the 10 cm cell culture dish (Greiner Bio-One #664160). The media was changed every third day until the cells were about 90% confluent. The ˜90% confluent cells were then split 10:1 for maintenance or used for experiment.” left out
# As 5-HT1A activation inhibits cAMP formation, the agonist activity of test molecules on 5-HT1A was measured via the reduction in the levels of cAMP produced due to application of 4 μM forskolin. The change in intracellular cAMP levels due to the treatment of novel molecules was measured using cAMP-Glo Assay kit (Promega #V1501). […] Reduced ATP caused reduced conversion of luciferin to oxyluciferin, conferring diminished luminescence as the result of 5-HT1A activation. […]
# [3] = molecular target: T2, 5-HT2A receptor (Homo sapiens, UniProt P28223); assay: [3H]ketanserin competition binding assay (SPA) on membranes containing 5-HT2A; details: fixed (1 nM) [3H]ketanserin; FIG. 13B, 13C
# T2 construct: purchased PerkinElmer ES-313-M400UA
# T2 sequence (P28223 whole entry): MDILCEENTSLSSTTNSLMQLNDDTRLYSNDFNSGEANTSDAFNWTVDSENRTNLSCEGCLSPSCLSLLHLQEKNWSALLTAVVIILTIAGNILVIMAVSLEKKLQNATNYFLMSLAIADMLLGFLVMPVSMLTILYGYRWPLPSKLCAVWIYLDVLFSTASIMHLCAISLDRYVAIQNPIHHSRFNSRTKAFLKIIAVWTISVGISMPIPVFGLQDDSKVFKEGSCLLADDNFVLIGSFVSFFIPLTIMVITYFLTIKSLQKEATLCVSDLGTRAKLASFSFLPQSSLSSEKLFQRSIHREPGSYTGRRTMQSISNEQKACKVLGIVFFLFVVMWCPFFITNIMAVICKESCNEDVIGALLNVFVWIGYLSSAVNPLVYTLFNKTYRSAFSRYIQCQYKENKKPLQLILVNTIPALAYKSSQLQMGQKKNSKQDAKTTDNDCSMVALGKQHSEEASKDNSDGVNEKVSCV
# From the text: Evaluation of drug binding is an essential step to characterization of all drug-target interactions (Fang 2012, Exp Opin Drug Discov 7:969). The binding affinity of a drug to a target is traditionally viewed as an acceptable surrogate of its in vivo efficacy (Núñez et al., 2012, Drug Disc Today 17: 10). Competition assays, also called displacement or modulation binding assays, are a common approach to measure activity of a ligand at a target receptor (Flanagan 2016, Methods Cell Biol 132: 191). In these assays, standard radioligands acting either as agonists or antagonists are ascribed to specific receptors. […] After incubation, the samples were read on a MicroBeta 2 Microplate Counter (Perkin Elmer). […] Equilibrium binding constants for ketanserin (Kd) were determined from saturation binding curves using the ‘one-site saturation binding analysis’ method of GraphPad PRISM software (Version 9.2.0). […] Ki values were calculated from the competition displacement data using the competitive binding analysis from GraphPad PRISM software. […] Specific binding in counts per minute (cpm) was calculated by subtracting non-specific binding from total binding. Specific binding (pmol/mg) was calculated from μmol of [^3H]ketanserin bound per mg of protein in the assay. The Kd was calculated by fitting the data with the one-site binding model of PRISM software (version 9.2.0).
# [4] = fixed (4 μM) forskolin, decreasing dosages of ligand
# [5] = fixed (4 μM) forskolin, decreasing dosages of ligand, FIG. 14D, 14E
SMILES,"5-HT1A activity from luminescence (cAMP) trend [1, 4]",trend of increasing % cAMP levels with decreasing compound [2],"5-HT1A binding activity from % cAMP levels trend [1, 5]",competition binding curve versus [3H]ketanserin [3],also measured
CN(C)CCc1c[nH]c2ccccc12 [DMT],5-HT1A activity,–,–,–,–
COc1ccc(C(=O)O)c2[nH]cc(CCN)c12 [compound (VI)],–,not observed,mild 5-HT1A binding activity,–,–
NCCc1c[nH]c2c(C(=O)O)ccc(O)c12 [compound (VII)],–,not observed,–,–,"5-HT1A binding activity from % cAMP levels trend ([1]; decreasing dosages of compound, FIG. 14F): 5-HT1A binding activity"
CN(C)CCc1c[nH]c2cccc(O)c12 [psilocin],–,–,–,binding,–
NCCc1c[nH]c2ccc(O)cc12 [serotonin],–,not observed,5-HT1A binding activity,–,–
N[C@@H](Cc1c[nH]c2ccccc12)C(=O)O [tryptophan],lack of 5-HT1A activity,–,–,no binding,–
